From PMC4503722, “Novel Phenotypic Outcomes Identified for a Public Collection of Approved Drugs from a Publicly Accessible Panel of Assays” (PLoS ONE, 2015)

Experiments:
hKDR = biological target: T1, hKDR (Homo sapiens, UniProt P35968); test: Cerep LANCE kinase assay hKDR (S1 assay 32); format: biochemical; details: assay number 32
T1 construct: purchased Cerep (LANCE kinase assay platform, contract assay)

hJAK2 = biological target: T2, hJAK2 (Homo sapiens, UniProt O60674); test: Cerep LANCE kinase assay hJAK2 (S1 assay 33); format: biochemical; details: assay number 33
T2 construct: purchased Cerep (LANCE kinase assay platform, contract assay)

[1] = test system: ECFC/ADSC co-culture cell nuclei number
[2] = test system: alkaline phosphatase (ALP) activity in C2C12 cells; format: cell-based; details: assay number 6; concentration response
hGSK3b = biological target: T3, hGSK3b (Homo sapiens, UniProt P49841); test: Cerep LANCE kinase assay hGSK3b (S1 assay 34); format: biochemical; details: assay number 34
T3 construct: purchased Cerep (LANCE kinase assay platform, contract assay)

hp70S6K1 (RPS6KB1) = biological target: T4, hp70S6K1 (RPS6KB1) (Homo sapiens, UniProt P23443); test: Cerep LANCE kinase assay hp70S6K1 (S1 assay 31); format: biochemical; details: assay number 31
T4 construct: purchased Cerep (LANCE kinase assay platform, contract assay)

HeLa cells = test: cells; format: cell-based; details: for Hela CellCycMod PI 2N IC50/EC50: assay number 14; for Hela CellCycMod PI 4N IC50/EC50: assay number 16; for Hela CellCycMod PI MI IC50/EC50: assay number 17; for Hela CellCycMod PI Cell Number IC50/EC50: assay number 18; for Hela CellCycMod PI S Phase IC50/EC50: assay number 15
hFLT3 = biological target: T5, hFLT3 (Homo sapiens, UniProt P36888); test: Cerep LANCE kinase assay hFLT3 (S1 assay 35); format: biochemical; details: assay number 35
T5 construct: purchased Cerep (LANCE kinase assay platform, contract assay)

[3] = test system: nuclear β-catenin in C2C12 cells; test: cells; format: cell-based; details: assay number 5; concentration response
[4] = test system: endothelial tube formation in co-cultures of ECFCs and ADSCs treated with VEGF; test: cells; format: cell-based, human

T5 sequence (P36888 27-993): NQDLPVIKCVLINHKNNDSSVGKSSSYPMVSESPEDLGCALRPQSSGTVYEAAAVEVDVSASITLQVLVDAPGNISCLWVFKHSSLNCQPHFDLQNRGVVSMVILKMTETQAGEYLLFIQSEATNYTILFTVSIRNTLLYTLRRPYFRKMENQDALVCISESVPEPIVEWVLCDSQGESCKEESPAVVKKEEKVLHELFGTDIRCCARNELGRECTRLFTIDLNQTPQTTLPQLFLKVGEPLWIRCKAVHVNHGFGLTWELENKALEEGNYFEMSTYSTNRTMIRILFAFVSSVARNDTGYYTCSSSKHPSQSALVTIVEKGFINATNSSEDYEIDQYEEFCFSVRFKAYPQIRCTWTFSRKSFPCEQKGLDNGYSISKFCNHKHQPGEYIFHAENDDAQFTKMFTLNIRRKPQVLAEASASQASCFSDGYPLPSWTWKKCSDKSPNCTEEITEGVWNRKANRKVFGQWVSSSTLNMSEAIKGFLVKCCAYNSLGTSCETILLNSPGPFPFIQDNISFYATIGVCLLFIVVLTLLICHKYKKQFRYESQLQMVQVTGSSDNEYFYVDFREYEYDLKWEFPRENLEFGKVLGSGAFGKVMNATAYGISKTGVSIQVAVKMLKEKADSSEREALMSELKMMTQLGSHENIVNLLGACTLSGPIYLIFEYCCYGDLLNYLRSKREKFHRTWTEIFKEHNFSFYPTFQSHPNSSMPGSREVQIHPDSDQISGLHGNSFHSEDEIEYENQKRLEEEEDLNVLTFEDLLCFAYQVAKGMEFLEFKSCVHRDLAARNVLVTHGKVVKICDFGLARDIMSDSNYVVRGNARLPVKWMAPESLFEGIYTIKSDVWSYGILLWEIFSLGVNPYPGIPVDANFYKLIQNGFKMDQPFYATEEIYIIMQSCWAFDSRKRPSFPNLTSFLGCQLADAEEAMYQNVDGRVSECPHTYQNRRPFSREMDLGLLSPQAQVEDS
T4 sequence (P23443 whole entry): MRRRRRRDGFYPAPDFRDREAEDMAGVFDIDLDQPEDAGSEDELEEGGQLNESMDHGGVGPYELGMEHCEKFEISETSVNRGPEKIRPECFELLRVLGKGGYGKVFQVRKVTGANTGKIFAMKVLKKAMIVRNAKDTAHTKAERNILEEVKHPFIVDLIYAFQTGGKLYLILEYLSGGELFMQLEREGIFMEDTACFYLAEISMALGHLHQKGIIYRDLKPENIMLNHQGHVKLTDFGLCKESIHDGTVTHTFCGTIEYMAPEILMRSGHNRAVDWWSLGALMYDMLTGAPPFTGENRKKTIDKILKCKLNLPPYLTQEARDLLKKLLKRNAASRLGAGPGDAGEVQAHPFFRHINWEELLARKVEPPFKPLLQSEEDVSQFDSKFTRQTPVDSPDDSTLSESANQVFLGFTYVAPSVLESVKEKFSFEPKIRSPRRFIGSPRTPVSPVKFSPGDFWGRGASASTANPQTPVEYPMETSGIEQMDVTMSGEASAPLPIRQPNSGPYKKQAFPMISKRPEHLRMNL
T1 sequence (P35968 20-1356): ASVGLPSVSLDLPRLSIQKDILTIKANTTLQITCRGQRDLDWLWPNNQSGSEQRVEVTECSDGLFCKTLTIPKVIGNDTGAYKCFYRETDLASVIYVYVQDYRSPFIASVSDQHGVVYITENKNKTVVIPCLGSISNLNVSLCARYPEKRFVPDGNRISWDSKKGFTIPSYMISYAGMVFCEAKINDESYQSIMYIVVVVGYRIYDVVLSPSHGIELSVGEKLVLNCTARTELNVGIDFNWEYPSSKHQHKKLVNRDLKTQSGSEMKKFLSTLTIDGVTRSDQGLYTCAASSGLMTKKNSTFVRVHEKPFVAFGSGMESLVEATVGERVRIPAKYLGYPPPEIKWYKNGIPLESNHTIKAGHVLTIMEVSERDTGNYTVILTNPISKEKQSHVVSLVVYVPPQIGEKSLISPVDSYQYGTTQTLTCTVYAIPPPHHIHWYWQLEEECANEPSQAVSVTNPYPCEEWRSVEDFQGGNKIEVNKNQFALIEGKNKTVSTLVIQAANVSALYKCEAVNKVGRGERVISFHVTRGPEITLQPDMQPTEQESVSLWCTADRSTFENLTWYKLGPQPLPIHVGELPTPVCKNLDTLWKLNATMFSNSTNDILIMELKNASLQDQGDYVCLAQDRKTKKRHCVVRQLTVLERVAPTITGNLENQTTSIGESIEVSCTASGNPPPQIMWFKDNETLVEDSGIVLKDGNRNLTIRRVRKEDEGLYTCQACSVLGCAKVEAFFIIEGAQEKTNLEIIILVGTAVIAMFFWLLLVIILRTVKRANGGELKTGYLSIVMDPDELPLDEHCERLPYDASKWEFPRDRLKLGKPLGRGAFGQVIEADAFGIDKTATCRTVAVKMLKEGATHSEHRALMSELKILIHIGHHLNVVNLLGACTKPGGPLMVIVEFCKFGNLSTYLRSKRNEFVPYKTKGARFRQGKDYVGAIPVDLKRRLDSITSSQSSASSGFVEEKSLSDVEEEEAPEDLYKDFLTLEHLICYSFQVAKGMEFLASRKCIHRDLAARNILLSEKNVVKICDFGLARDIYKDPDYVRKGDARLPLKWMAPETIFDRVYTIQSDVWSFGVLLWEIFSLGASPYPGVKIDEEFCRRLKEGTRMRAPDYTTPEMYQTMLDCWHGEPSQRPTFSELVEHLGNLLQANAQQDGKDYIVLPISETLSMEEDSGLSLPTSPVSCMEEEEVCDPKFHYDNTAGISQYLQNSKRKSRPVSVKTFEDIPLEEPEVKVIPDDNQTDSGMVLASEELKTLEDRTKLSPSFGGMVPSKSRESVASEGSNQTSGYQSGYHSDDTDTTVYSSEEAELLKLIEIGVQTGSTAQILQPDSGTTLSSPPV
T3 sequence (P49841 whole entry): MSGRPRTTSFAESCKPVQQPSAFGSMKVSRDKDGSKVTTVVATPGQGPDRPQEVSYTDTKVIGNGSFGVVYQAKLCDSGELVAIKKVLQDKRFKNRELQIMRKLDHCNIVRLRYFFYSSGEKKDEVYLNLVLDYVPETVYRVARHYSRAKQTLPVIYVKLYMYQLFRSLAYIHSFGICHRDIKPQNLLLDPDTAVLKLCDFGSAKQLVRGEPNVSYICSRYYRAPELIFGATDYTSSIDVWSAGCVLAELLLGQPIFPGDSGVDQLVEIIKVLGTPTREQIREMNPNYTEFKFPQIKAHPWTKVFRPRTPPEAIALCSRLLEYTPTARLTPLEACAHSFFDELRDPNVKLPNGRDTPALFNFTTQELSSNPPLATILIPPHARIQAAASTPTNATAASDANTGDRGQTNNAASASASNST
T2 sequence (O60674 whole entry): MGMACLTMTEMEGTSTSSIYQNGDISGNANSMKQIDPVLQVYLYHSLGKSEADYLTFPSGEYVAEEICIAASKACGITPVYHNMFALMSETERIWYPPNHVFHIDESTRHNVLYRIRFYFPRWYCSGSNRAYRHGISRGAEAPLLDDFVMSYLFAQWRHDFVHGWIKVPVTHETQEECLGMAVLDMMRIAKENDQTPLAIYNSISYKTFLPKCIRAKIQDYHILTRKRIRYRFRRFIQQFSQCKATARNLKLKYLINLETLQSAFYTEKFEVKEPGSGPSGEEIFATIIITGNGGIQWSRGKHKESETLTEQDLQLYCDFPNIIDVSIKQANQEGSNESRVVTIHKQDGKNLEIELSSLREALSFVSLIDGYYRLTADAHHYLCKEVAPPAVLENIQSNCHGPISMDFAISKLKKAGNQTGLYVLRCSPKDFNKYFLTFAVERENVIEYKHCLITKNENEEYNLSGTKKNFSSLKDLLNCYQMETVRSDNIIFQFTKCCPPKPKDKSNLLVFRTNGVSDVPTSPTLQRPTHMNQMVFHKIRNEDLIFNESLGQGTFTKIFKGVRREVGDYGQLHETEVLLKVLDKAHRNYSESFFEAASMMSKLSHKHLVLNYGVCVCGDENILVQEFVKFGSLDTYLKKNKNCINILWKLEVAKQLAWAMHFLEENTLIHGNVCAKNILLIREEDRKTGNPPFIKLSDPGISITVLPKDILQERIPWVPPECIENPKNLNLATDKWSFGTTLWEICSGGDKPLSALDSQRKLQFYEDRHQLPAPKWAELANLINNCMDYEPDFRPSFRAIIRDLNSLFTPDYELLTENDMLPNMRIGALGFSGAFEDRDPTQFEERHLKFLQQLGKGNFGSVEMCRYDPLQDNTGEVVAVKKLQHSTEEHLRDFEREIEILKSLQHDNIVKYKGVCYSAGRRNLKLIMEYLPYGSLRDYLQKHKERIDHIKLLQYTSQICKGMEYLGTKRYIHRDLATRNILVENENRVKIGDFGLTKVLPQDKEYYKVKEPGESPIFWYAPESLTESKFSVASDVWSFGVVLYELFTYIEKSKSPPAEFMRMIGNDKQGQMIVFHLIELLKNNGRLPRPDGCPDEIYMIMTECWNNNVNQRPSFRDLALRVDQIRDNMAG

SMILES | hKDR LANCE IC50/EC50 (hKDR) [µM] | hJAK2 LANCE IC50/EC50 (hJAK2) [µM] | VEGF_ADSC\ECFC Angio Hoechst NucArea IC50/EC50 [1] [µM] | WntCondMedia_Alk Phos C2C12 IC50/EC50 [2] [µM] | hGSK3b LANCE IC50/EC50 (hGSK3b) [µM] | hp70S6K1 LANCE IC50/EC50 (hp70S6K1 (RPS6KB1)) [µM] | Hela CellCycMod PI 2N IC50/EC50 (HeLa cells) [µM] | Hela CellCycMod PI 4N IC50/EC50 (HeLa cells) [µM] | Hela CellCycMod PI MI IC50/EC50 (HeLa cells) [µM] | Hela CellCycMod PI Cell Number IC50/EC50 (HeLa cells) [µM] | hFLT3 LANCE IC50/EC50 (hFLT3) [µM] | WntCondMedia_bCatenin C2C12 IC50/EC50 [3] [µM] | VEGF_ADSC\ECFC Angio CD31 TubeArea IC50/EC50 [4] [µM] | Hela CellCycMod PI S Phase IC50/EC50 (HeLa cells) [µM]
CCCCCCNC(=O)n1cc(F)c(=O)[nH]c1=O [NCGC00095165-07] | > 20 | > 20 | > 10 | 5.5533 | > 20 | > 20 | > 10 | > 10 | > 10 | > 10 | > 20 | 4.9829 | 4.486 | 
[O-][n+]1ccccc1SSc1cccc[n+]1[O-] [NCGC00164493-02] | > 20 | > 20 | 1.7865 | 0.1306 | > 20 | > 20 | > 10 | > 10 | 2.2317 | 0.8425 | > 20 | 0.9914 | 0.719 | > 10
CC(C)(C)C(=O)OCOP(=O)(COCCn1cnc2c(N)ncnc21)OCOC(=O)C(C)(C)C [NCGC00164624-02] | > 20 | > 20 | > 10 | 0.3874 | > 20 | > 20 | > 10 | > 10 | > 10 | 0.134 | > 20 | 0.7043 | 0.3913 | 0.0608
CC[C@@]1(O)C(=O)OCc2c1cc1n(c2=O)Cc2c-1nc1ccccc1c2/C=N/OC(C)(C)C [NCGC00253588-01] | > 20 | > 20 | 0.7994 | 0.0032 | > 20 | > 20 |  | > 10 | > 10 | 0.0022 | > 20 | 1.1571 | 0.002 | 
